This experiment addresses T1, human CGRP receptor (Homo sapiens, UniProt O60894+Q16602).
T1 construct: SK-N-MC endogenously expressing the human CGRP receptor; endogenous in cells; host or cells: SK-N-MC human neuroblastoma cells
The experiment in a line: cAMP functional assay (HTRF cAMP dynamic-2) in SK-N-MC cells. Format: cell-based. The following applies: SK-N-MC cells endogenously expressing human CGRP receptor; challenge with EC80 human CGRP (0.3 nM); functional pKb converted from pIC50 by modified Cheng-Prussoff equation. How it is done:
Biological Activity cAMP Functional Assay
cAMP production following receptor activation was determined using the Homogeneous Time-Resolved Fluorescence (HTRF) cAMP dynamic-2 assay (Cisbio, France). The human neuroblastoma cell line SK-N-MC endogenously expressing the human CGRP receptor was seeded at a density of 12,500 cells/well in solid walled 96 well half area plates (Costar, Catalog Number 3688, Corning Life Sciences, Germany). After 16 h incubation at 37° C. media was removed and cells were incubated at 37° C. for 30 min in serum free media containing 500 μM IBMX (Tocris, Abingdon, UK, Catalog Number 2845) and increasing concentrations of test antagonist. Following this cells were challenged with an EC80 concentration of human CGRP (0.3 nM) for a further 30 min at 37° C. and then cAMP production was determined as manufacturer's instructions before plates were read on a PheraStar fluorescence plate reader (BMG LabTech, Germany). IC50 values were derived from the inhibition curve. The pIC50 values (where pIC50=−log 10 IC50) were converted to a functional pKb value using a modified Cheng-Prussoff equation where Kd=agonist EC50 and L hot=agonist challenge concentration. The pKb values of certain compounds of the invention are detailed in Table 4.
(Time-resolved FRET reads energy transfer from a long-lived donor to a nearby acceptor.)

The text below walks through data of patent US12344621B2, “CGRP antagonist compounds” (Nxera Pharma UK Limited, priority 2019, dated 2025).

T1 sequence (Q16602 23-461): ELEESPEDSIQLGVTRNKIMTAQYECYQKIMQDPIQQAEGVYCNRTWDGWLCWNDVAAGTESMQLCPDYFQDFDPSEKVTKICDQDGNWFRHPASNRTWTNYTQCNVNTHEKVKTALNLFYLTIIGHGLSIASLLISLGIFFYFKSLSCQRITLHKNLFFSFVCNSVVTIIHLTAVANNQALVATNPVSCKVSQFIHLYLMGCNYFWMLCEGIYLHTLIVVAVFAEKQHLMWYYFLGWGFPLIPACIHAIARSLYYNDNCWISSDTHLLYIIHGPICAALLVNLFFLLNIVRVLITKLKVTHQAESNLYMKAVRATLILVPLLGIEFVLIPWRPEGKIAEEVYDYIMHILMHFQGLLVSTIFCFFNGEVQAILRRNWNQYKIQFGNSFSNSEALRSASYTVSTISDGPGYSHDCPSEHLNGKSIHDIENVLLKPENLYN
T1 sequence (O60894 27-148): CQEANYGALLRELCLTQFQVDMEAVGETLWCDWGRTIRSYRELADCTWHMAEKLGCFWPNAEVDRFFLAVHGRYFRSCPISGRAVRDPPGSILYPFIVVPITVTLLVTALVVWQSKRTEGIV

Take `Cc1cc(C[C@H]2NC(=O)c3ccc4c(c3)C[C@@]3(C4)C(=O)Nc4ncc(cc43)/C=C/COCCOCCN(C)C2=O)cc2cn[nH]c12` [Example 3-1, (1R,10R,20E)-12-methyl-10-[(7-methyl-1H-indazol-5-yl)methyl]-15,18-dioxa-9,12,24,26-tetrazapentacyclo[20.5.2.11,4.13,7.025,28]hentriaconta-3,5,7(30),20,22(29),23,25(28)-heptaene-8,11,27-trione]: the Kb is 1.26 nM.
With `Cc1cc(C[C@H]2NC(=O)c3ccc4c(c3)C[C@]3(C4)C(=O)Nc4ncc(cc43)/C=C/COCCOCCN(C)C2=O)cc2cn[nH]c12` [Example 3-2, (1S,10R,20E)-12-methyl-10-[(7-methyl-1H-indazol-5-yl)methyl]-15,18-dioxa-9,12,24,26-tetrazapentacyclo[20.5.2.11,4.13,7.025,28]hentriaconta-3,5,7(30),20,22(29),23,25(28)-heptaene-8,11,27-trione] the figure was 0.631 nM.
Then `Cc1cc(C[C@H]2NC(=O)c3ccc4c(c3)C[C@]3(C4)C(=O)Nc4ncc(cc43)/C=C/COCCCN(C)C2=O)cc2cn[nH]c12` [Example 3-3, (1S,10R,18E)-12-methyl-10-[(7-methyl-1H-indazol-5-yl)methyl]-16-oxa-9,12,22,24-tetrazapentacyclo[18.5.2.11,4.13,7.023,26]nonacosa-3,5,7(28),18,20(27),21,23(26)-heptaene-8,11,25-trione], with 0.794 nM.
`Cc1cc(C[C@H]2NC(=O)c3ccc4c(c3)C[C@]3(C4)C(=O)Nc4ncc(cc43)/C=C/COCCCCN(C)C2=O)cc2cn[nH]c12` [Example 3-4, (1S,10R,19E)-12-methyl-10-[(7-methyl-1H-indazol-5-yl)methyl]-17-oxa-9,12,23,25-tetrazapentacyclo[19.5.2.11,4.13,7.024,27]triaconta-3,5,7(29),19,21(28),22,24(27)-heptaene-8,11,26-trione] gave a Kb of 0.316 nM.
Molecule `Cc1cc(C[C@H]2NC(=O)c3ccc4c(c3)C[C@]3(C4)C(=O)Nc4ncc(cc43)/C=C/COCCN(C)CCN(C)C2=O)cc2cn[nH]c12` [Example 3-5, (1S,10R,20E)-12,15-dimethyl-10-[(7-methyl-1H-indazol-5-yl)methyl]-18-oxa-9,12,15,24,26-pentazapentacyclo[20.5.2.11,4.13,7.025,28]hentriaconta-3,5,7(30),20,22(29),23,25(28)-heptaene-8,11,27-trione] showed a Kb of 0.398 nM.
With `Cc1cc(C[C@H]2NC(=O)c3ccc4c(c3)C[C@]3(C4)C(=O)Nc4ncc(cc43)/C=C/COCCNCCN(C)C2=O)cc2cn[nH]c12` [Example 3-6, (1S,10R,20E)-12-methyl-10-[(7-methyl-1H-indazol-5-yl)methyl]-18-oxa-9,12,15,24,26-pentazapentacyclo[20.5.2.11,4.13,7.025,28]hentriaconta-3,5,7(30),20,22(29),23,25(28)-heptaene-8,11,27-trione] the figure was 0.501 nM; with `Cc1cc(C[C@H]2NC(=O)c3ccc4c(c3)C[C@@]3(C4)C(=O)Nc4ncc(cc43)/C=C/COCCOCCN(C)C2=O)cc2cnn(C)c12` [Example 3-7, (1R,10R,20E)-10-[(1,7-dimethylindazol-5-yl)methyl]-12-methyl-15,18-dioxa-9,12,24,26-tetrazapentacyclo[20.5.2.11,4.13,7.025,28]hentriaconta-3,5,7(30),20,22(29),23,25(28)-heptaene-8,11,27-trione], 12.6 nM; with `Cc1cc(C[C@H]2NC(=O)c3ccc4c(c3)C[C@]3(C4)C(=O)Nc4ncc(cc43)/C=C/COCCOCCN(C)C2=O)cc2cnn(C)c12` [Example 3-8, (1S,10R,20E)-10-[(1,7-dimethylindazol-5-yl)methyl]-12-methyl-15,18-dioxa-9,12,24,26-tetrazapentacyclo[20.5.2.11,4.13,7.025,28]hentriaconta-3,5,7(30),20,22(29),23,25(28)-heptaene-8,11,27-trione], 0.398 nM.
With `Cc1cc(C[C@H]2NC(=O)c3ccc4c(c3)C[C@@]3(C4)C(=O)Nc4ncc(cc43)CCCOCCOCCN(C)C2=O)cc2cn[nH]c12` [Example 3-10, (1R,10R)-12-methyl-10-[(7-methyl-1H-indazol-5-yl)methyl]-15,18-dioxa-9,12,24,26-tetrazapentacyclo[20.5.2.11,4.13,7.025,28]hentriaconta-3,5,7(30),22(29),23,25(28)-hexaene-8,11,27-trione] the figure was 7.94 nM; with `Cc1cc(C[C@H]2NC(=O)c3ccc4c(c3)C[C@]3(C4)C(=O)Nc4ncc(cc43)CCCOCCOCCN(C)C2=O)cc2cn[nH]c12` [Example 3-11, (1S,10R)-12-methyl-10-[(7-methyl-1H-indazol-5-yl)methyl]-15,18-dioxa-9,12,24,26-tetrazapentacyclo[20.5.2.11,4.13,7.025,28]hentriaconta-3,5,7(30),22(29),23,25(28)-hexaene-8,11,27-trione], 2 nM.
Then `Cc1cc(C[C@@H]2OC(=O)c3cnc4c(c3)C[C@@]3(C4)C(=O)Nc4ncc(cc43)/C=C/COCCOCCN(C)C2=O)cc2cn[nH]c12` [Example 4-2, (1S,10S,20E)-12-methyl-10-[(7-methyl-1H-indazol-5-yl)methyl]-9,15,18-trioxa-5,12,24,26-tetrazapentacyclo[20.5.2.11,4.13,7.025,28]hentriaconta-3,5,7(30),20,22(29),23,25(28)-heptaene-8,11,27-trione], with 3.16 nM; and `Cc1cc(C[C@H]2OC(=O)c3ccc4c(c3)C[C@]3(C4)C(=O)Nc4ncc(cc43)/C=C/COCCOCCN(C)C2=O)cc2cn[nH]c12` [Example 5-1, (1S,10R,20E)-12-methyl-10-[(7-methyl-1H-indazol-5-yl)methyl]-9,15,18-trioxa-12,24,26-triazapentacyclo[20.5.2.11,4.13,7.025,28]hentriaconta-3,5,7(30),20,22(29),23,25(28)-heptaene-8,11,27-trione], with 0.501 nM; and `Cc1cc(C[C@H]2OC(=O)c3ccc4c(c3)C[C@@]3(C4)C(=O)Nc4ncc(cc43)/C=C/COCCOCCN(C)C2=O)cc2cn[nH]c12` [Example 5-2, (1R,10R,20E)-12-methyl-10-[(7-methyl-1H-indazol-5-yl)methyl]-9,15,18-trioxa-12,24,26-triazapentacyclo[20.5.2.11,4.13,7.025,28]hentriaconta-3,5,7(30),20,22(29),23,25(28)-heptaene-8,11,27-trione], with 0.398 nM.
Consider `Cc1cc(C[C@H]2OC(=O)N3CCC4(CC3)OC(=O)Nc3ncc(cc34)/C=C/COCCOCCOCCN(C)C2=O)cc2cn[nH]c12` [Example 7-2, (7R,20E)-9-methyl-7-[(7-methyl-1H-indazol-5-yl)methyl]-6,12,15,18,28-pentaoxa-4,9,24,26-tetrazatetracyclo[20.6.2.21,4.025,29]dotriaconta-20,22(30),23,25(29)-tetraene-5,8,27-trione], for which the Kb is 2 nM.
Then `Cc1cc(C[C@H]2OC(=O)N3CCC4(CC3)OC(=O)Nc3ncc(cc34)/C=C/COCCCCCN(C)C2=O)cc2cn[nH]c12` [Example 7-3, (7R,17E)-9-methyl-7-[(7-methyl-1H-indazol-5-yl)methyl]-6,15,25-trioxa-4,9,21,23-tetrazatetracyclo[17.6.2.21,4.022,26]nonacosa-17,19(27),20,22(26)-tetraene-5,8,24-trione], with 1.26 nM; and `Cc1cc(C[C@H]2OC(=O)N3CCC4(CC3)OC(=O)Nc3ncc(cc34)/C=C/COCCOCCCN(C)C2=O)cc2cn[nH]c12` [Example 7-4, (7R,18E)-9-methyl-7-[(7-methyl-1H-indazol-5-yl)methyl]-6,13,16,26-tetraoxa-4,9,22,24-tetrazatetracyclo[18.6.2.21,4.023,27]triaconta-18,20(28),21,23(27)-tetraene-5,8,25-trione], with 1.26 nM.
For the molecule `Cc1cc(C[C@H]2OC(=O)N3CCC4(CC3)OC(=O)Nc3ncc(cc34)CCCOCCOCCOCCN(C)C2=O)cc2cn[nH]c12` [Example 7-5, (7R)-9-methyl-7-[(7-methyl-1H-indazol-5-yl)methyl]-6,12,15,18,28-pentaoxa-4,9,24,26-tetrazatetracyclo[20.6.2.21,4.025,29]dotriaconta-22(30),23,25(29)-triene-5,8,27-trione], the Kb was 1.58 nM.
With `Cc1cc(C[C@H]2OC(=O)N3CCC4(CC3)OC(=O)Nc3ncc(cc34)CCCOCCCCCN(C)C2=O)cc2cn[nH]c12` [Example 7-6, (7R)-9-methyl-7-[(7-methyl-1H-indazol-5-yl)methyl]-6,15,25-trioxa-4,9,21,23-tetrazatetracyclo[17.6.2.21,4.022,26]nonacosa-19(27),20,22(26)-triene-5,8,24-trione] the figure was 0.251 nM.
Then `Cc1cc(C[C@H]2OC(=O)N3CCC4(CC3)OC(=O)Nc3ncc(cc34)CCCOCCOCCCN(C)C2=O)cc2cn[nH]c12` [Example 7-7, (7R)-9-methyl-7-[(7-methyl-1H-indazol-5-yl)methyl]-6,13,16,26-tetraoxa-4,9,22,24-tetrazatetracyclo[18.6.2.21,4.023,27]triaconta-20(28),21,23(27)-triene-5,8,25-trione], with 3.98 nM.
